The test system of one assay is rat. Conditions: cited from earlier work.
Assay [1] in a line: Antioxidant behavior of C60 fullerene compared with vitamin C (reported). Conditions: 60 atoms for C60 fullerene versus six for vitamin C. From the text: Antioxidant behavior has been reported in C60 fullerene as being 172 times that of vitamin C or ascorbic acid.
The reported factor of 172 times greater than vitamin C can be partially explained by C60 fullerene having 60 carbons over which electron delocalization can proceed versus only six atoms of a mixture of half and half carbon and oxygen for vitamin C. If it were just numbers of atoms over which electron delocalization proceeds in its effectiveness in stabilizing unpaired electrons arising from ROS, one would expect that the potency of C60 fullerene would be only ten times that of vitamin C. Phenolics involve only seven atoms for stabilizing unpaired electrons of six carbons from the benzene ring plus the phenolic oxygen atom and thus C60 fullerene would then be expected to be a bit less than ten times that of phenolic antioxidants.
The reported 172 factor superiority of C60 fullerene in antioxidant behavior over vitamin C or ascorbic acid cannot be accounted for on the basis of individual atoms involved in the delocalization network alone. […] So, there must be something exceptional about the electron delocalization involving 3D fullerene concentric shells over 2D ascorbic acid or phenolics. There are several explanations for the superiority of 3D fullerene systems especially of the fullerene CNO systems: […]

Consider `c12c3c4c5c1c1c6c7c2c2c8c3c3c9c4c4c%10c5c5c1c1c6c6c%11c7c2c2c7c8c3c3c8c9c4c4c9c%10c5c5c1c1c6c6c%11c2c2c7c3c3c8c4c4c9c5c1c1c6c2c3c41` [C60 fullerene], for which the life expectancy result in the assay with rat is on record as “nearly doubling of life expectancy”. The “superiority in antioxidant behavior over ascorbic acid, taking into account the number of atoms in the electron delocalization network” value in assay [1] worked out at 17.2 factor.

The values are drawn from patent US20250223171A1, “ALLOTROPE OF CARBON HAVING INCREASED ELECTRON DELOCALIZATION” (Structured Nano Carbon LLC, priority 2017, published 2025).
